Here are results for seven compounds from patent EP0048186B1, “Cyclopropane-carboxylic-acid derivatives, their preparation, their use in combating vegetal parasites, animals and locations, their compositions, and intermediates” (ROUSSEL-UCLAF, priority 1980, dated 1982).

Holding throughout (format): in vivo
One assay relates to mouche domestique. Kind of assay: Knock-down activity on house fly, direct spray in Kearns and March chamber. The conditions noted are these: for KT 50 en mn: direct spray, acetone/isopar L; for activité (conclusion): conclusion in words on the knock-down test. As to the method: 3°): Etude de l'activité de choc sur mouche domestique.
Les insectes tests sont des mouches domestiques femelles âgées de 4/5 jours. On opère par pulvérisation directe en chambre de Kearns et March en utilisant comme solvant un mélange en volumes égaux d'acétone et d'isopar L (quantité de solution utilisée 2 x 0,2 cm3). On utilise environ 50 insectes par dose de traitement. On effectue les contrôles toutes les minutes jusqu'à 10 minutes, puis à 15 minutes et l'on détermine le KT 50 par les méthodes habituelles.

For assay [1], the system named is larves de Spodoptera littoralis. Kind of assay: Effect on Spodoptera littoralis larvae, topical application. The conditions noted are these: for activité (conclusion): conclusion in words on the Spodoptera littoralis test; for DL 50 (ng par individu): fourth-instar larvae, topical acetone solution on dorsal thorax, mortality 48 h after treatment. As to the method: 2°): Etude de l'effet sur larves de Spodoptera littoralis.
Les essais sont effectués par application topique d'une solution acétonique du produit à tester à l'aide du micro manipulateur d'Arnold sur le thorax dorsal des larves. On utilise 15 larves par dose de produit à tester. Les larves utilisées sont des larves du quatrième stade larvaire, c'est-à-dire âgées d'environ 10 jours lorsqu'elles sont élevées à 24°C et 65% d'humidité relative. Après traitement, les individus sont placés sur un milieu nutritif artificiel (milieu de Poitout).
On effectue le contrôle des mortalités 48 heures après traitement.

Assay [2] relates to blatte germanique (Blatella germanica). Kind of assay: Tarsal contact activity on German cockroach. As to the method: 4°): Etude de l'activité par contact tarsal sur blatte germanique. (composé de l'exemple 1J
Les insectes testés sont des mâles de blatte germanique (Blatella germanica). On opère par dépôt d'une solution acétonique de concentration déterminée sur le fond d'une boîte de Petri de 20 cm de diamètre. Après séchage on laisse séjourner 20 mâles de blattes par concentration durant 1 heure puis on transfère les insectes sur milieu sain et on contrôle leur mortalité à 24 h, 48 h, 3 et 5 jours.

The test system of a further assay is mouches domestiques. Nature of the assay: Lethal effect on house flies, topical application. The conditions noted are these: for activité (conclusion): conclusion in words on the lethal test on house flies; for DL 50 (ng par individu): female house flies 4/5 days old, topical 1 µl acetone solution on dorsal thorax, mortality 24 h after treatment. How it is done: 1°); Etude de l'effet létal sur mouches domestiques.
Les insectes tests sont des mouches domestiques femelles âgées de 4/5 jours. On opère par application topique de 1 ul de solution acétonique du produit sur le thorax dorsal des insectes à l'aide du micro manipulateur d'Arnold. On utilise 50 individus par dose et par traitement. On effectue le contrôle de mortalité vingt-quatre heures après traitement.
Le résultat obtenu exprimé en DL 50 ou dose (en nanogrammes) nécessaire pour tuer 50% des insectes, est le suivant: […]

In another assay the test system is Tétranychus urticae. Nature of the assay: Adulticide test on Tetranychus urticae on bean plants. The conditions noted are these: dose 2,8 mg/I, sprayed bean plants, checks after 1, 24, 48 and 72 h of contact. As to the method:
5°): Activité sur Tétranychus urticae. (composé de l'exemple 1)
On utilise des plants de haricot comportant deux feuilles cotylédonaires. Ces plants sont traités au pistolet Fisher avec une solution acétonique du produit. Après séchage 25 femelles de l'acarien Tétranychus urticae sont disposées par feuilles soit 50 individus par dose expérimentée par plant. Les contrôles d'efficacité sont effectués après 1, 24, 48 et 72 heures de contact.

The structures appear in SMILES notation.

On to `CC1(C)[C@H](C(=O)O[C@H](C#N)c2cccc(Oc3ccccc3)c2)[C@@H]1/C=C\C(=O)OCC(F)(F)F` [Exemple 1, (1 R cis) 2,2-diméthyl 3/(Z) 3-(2,2,2-trifluoroéthoxy) 3-oxo 1-propényl/ cyclopropane carboxylatede (S) a-cyano 3-phénoxy benzyle], for which the “KT 50 en mn” value with mouche domestique (Concentration 1 g/l) was 3,534 mn. For the same compound, the “activité (conclusion)” value with mouche domestique is given as “bonne activité”; in assay [1] it was “bonne activité”; in assay [2] (conclusion in words on the tarsal contact test) it was “très bonne activité”; with mouches domestiques, “activité remarquable”. Further, the “DL 50 (ng par individu)” value in assay [1] is reported as 4,699 ng par individu; in the assay on mouches domestiques, 1,115 ng par individu. Moreover, the “concentration létale 50 (CL 50)” value in assay [2] (male cockroaches, 1 h contact with dried deposit in Petri dish, mortality checked at 24 h, 48 h, 3 and 5 days) is on record as 0,216 mg/m2. In the assay on Tétranychus urticae, the “activité (essai adulticide)” value was “très bonne activité”.

On to `CC1(C)[C@H](C(=O)O[C@H](C#N)c2cccc(Oc3ccccc3)c2)[C@@H]1/C=C\C(=O)OC(C(F)(F)F)C(F)(F)F` [Exemple 23, (1R cis) 2,2-diméthyl-3-/(Z)-3-oxo 3-(2-(1,1,1,3,3,3-hexafluoro)propoxy) 1-propényl/ cyclopropane carboxylatede (S) a-cyano 3-phénoxy benzyle], for which, in the assay with mouches domestiques, the “activité (conclusion)” value is “activité remarquable” and the “DL 50 (ng par individu)” value is 0,962 ng par individu.

Take `CC1(C)[C@H](C(=O)O[C@H](C#N)c2cccc(Oc3ccccc3)c2)[C@@H]1/C=C\C(=O)OCCF` [Exemple 35, (1R cis) 2,2-diméthyl-3-/(Z)-3-oxo 3-(2-fluoroéthoxy) 1-propényl/ cyclopropane carboxylatede (S) a-cyano 3-phénoxy benzyle]: in the assay on mouche domestique (Concentration 1 g/l), the “KT 50 en mn” value is on record as 2,894 mn. Also, the “activité (conclusion)” value with mouche domestique is given as “bonne activité”. In assay [1], the “activité (conclusion)” value is “bonne activité” and the “DL 50 (ng par individu)” value is given as 0,544 ng par individu.

On to `C#CCN1CC(=O)N(COC(=O)[C@@H]2[C@H](/C=C\C(=O)OCC(F)(F)F)C2(C)C)C1=O` [Exemple 26, (1R cis) 2,2-diméthyl-3-/(Z)-3-oxo 3-(2,2,2-trifluoro éthoxy) 1-propényl/ cyclopropane carboxylatede (3-propargyl 2,5-dioxoimidazolidinyl) méthyle], for which the “KT 50 en mn” value in the assay on mouche domestique (Concentration 0,25 g/l) was 1,550 mn. For the same compound, in the assay with mouche domestique, the “activité (conclusion)” value is listed as “bonne activité”.

With `C#C[C@@H](OC(=O)[C@@H]1[C@H](/C=C\C(=O)OCC(F)(F)F)C1(C)C)c1cccc(Oc2ccccc2)c1` [Exemple 29, (1R cis) 2,2-diméthyl-3-/(Z)-3-oxo 3-(2,2,2-trifluoro éthoxy) 1-propényl/ cyclopropane carboxylatede (R) a-éthynyl 3-phénoxy benzyle], in the assay with mouches domestiques, the “activité (conclusion)” value is “activité remarquable” and the “DL 50 (ng par individu)” value was 0,825 ng par individu.

Turning to `CC1(C)[C@H](C(=O)OC(C#N)c2cccc(Oc3ccccc3)n2)[C@@H]1/C=C\C(=O)OCC(F)(F)F` (stereo partly drawn) [Exemple 30, (1R cis) 2,2-diméthyl-3-/(Z)-3-oxo 3-(2,2,2-trifluoro éthoxy) 1-propényl/ cyclopropane carboxylatede (RS) a-cyano 6-phénoxy 2-pyridyl méthyle], in the assay with mouche domestique (Concentration 1 g/l), the “KT 50 en mn” value is listed as 3,498 mn. Also, in the assay with mouche domestique, the “activité (conclusion)” value is “bonne activité”.

Turning to `C=CCC1=C(C)[C@@H](OC(=O)[C@@H]2[C@H](/C=C\C(=O)OCC(F)(F)F)C2(C)C)CC1=O` [Exemple 2, (1R cis) 2,2-diméthyl-3-/(Z)-3-oxo-3-(2,2,2-trifluoroéthoxy) 1-propényll cyclopropane carboxylatede (1S) 2-diméthyl-4-oxo-3-(2-propényl) 2-cyclopenten-1-yle], the “KT 50 en mn” value in the assay with mouche domestique (Concentration 0,25 g/l) is recorded as 3,608 mn. The “activité (conclusion)” value in the assay on mouche domestique is listed as “bonne activité”.
